ChEMBL document CHEMBL1130320, “Hypoxia-selective antitumor agents. 15. Modification of rate of nitroreduction and extent of lysosomal uptake by polysubstitution of 4-(alkylamino)-5-nitroquinoline bioreductive drugs” (J Med Chem, 1997)

Key:
physchem [1] = conditions: aqueous solution
Description: Affinity constant determined in aqueous solution

CHO-AA8 = assay: cells; conditions: Cricetulus griseus, CHO-AA8, 18 h
Description: Growth inhibition of aerobic AA8 cells, after 18 hours exposure

physchem [2] = conditions: aqueous solution; remark: listed apart in the source
Description: Pka was determined in aqueous solution

SMILES | pKa (physchem [1]) | IC50 (CHO-AA8) [µM] | pKa (physchem [2])
Cc1ccc([N+](=O)[O-])c2c(NCCCN(C)C)cc(-c3ccccc3)nc12 | 5.43 | 12 | 
Cc1nc2c(C)ccc([N+](=O)[O-])c2c(NCCCN(C)C)c1C | 6.67 | 113 | 
CCCCNc1ccnc2cccc([N+](=O)[O-])c12 | 7.18 | 9.6 | 
Cc1nc2cccc([N+](=O)[O-])c2c(NCCCN(C)C)c1C | 6.64 | 47 | 
Cc1cc(C)c2nccc(NCCCN(C)C)c2c1[N+](=O)[O-] | 6.37 | 74 | 
CN(C)CCNC(=O)c1ccc(NNc2ccnc3cccc([N+](=O)[O-])c23)cc1 |  | 13 | 5.08
Cc1ccc([N+](=O)[O-])c2c(NCC(O)CO)ccnc12 (configuration not stated) | 7.2 | 110 | 
COc1cc(OC)c2nccc(NCCCN(C)C)c2c1[N+](=O)[O-] | 6.25 | 186 | 
Cc1cnc2c(C)ccc([N+](=O)[O-])c2c1NCCCN(C)C | 6.1 | 277 | 
Cc1cnc2ccc(C)c([N+](=O)[O-])c2c1NCCCN(C)C |  | 201 | 6.07
COc1ccc([N+](=O)[O-])c2c(NCCCN(C)C)c(C)c(C)nc12 | 6.64 | 166 | 
COc1ccc([N+](=O)[O-])c2c(NCC(O)CO)ccnc12 (configuration not stated) | 7.1 | 50 | 
O=[N+]([O-])c1cccc2nccc(NCCN3CCOCC3)c12 | 6.78 | 18 | 
CCc1ccc2nccc(NCCCN(C)C)c2c1[N+](=O)[O-] | 6.2 | 108 | 
O=[N+]([O-])c1cccc2nccc(NCC(O)CO)c12 (configuration not stated) | 6.81 | 33 | 
O=[N+]([O-])c1cccc2nccc(NCCCO)c12 | 7.06 | 26 | 
